Earlier results as cited in patent US20120264961A1, “FE3O4-M(AU-LIKE)-NANOPARTICLES FOR ANTIBODY-CONSERVING TARGET-SPECIFIC PLATIN DELIVERY” (Brown University, priority 2009, published 2012).

Conditions: water solubility

In the case of `N.N.O=C([O-])C1(C(=O)[O-])CCC1.[Pt+2]` [carboplatin], the solubility is listed as 22 mg/mL.
